Reference: patent US9487515B2, “Compounds modulating c-fms and/or c-kit activity and uses therefor” (Plexxikon Inc., priority 2006, dated 2016)

Tests used:
TrkA kinase = molecular target: T1, TrkA kinase (Homo sapiens, UniProt P04629); assay: TrkA biochemical assay (AlphaScreen); settings: 100 μM ATP
T1 construct: purchased Upstate Biotech #14-571

c-kit = c-kit (Homo sapiens, UniProt P10721); assay: c-kit assays of Examples 40 and 41 (AlphaScreen kinase assays at 10 and 100 μM ATP, 33P-ATP filter assay, M-07e SCF-stimulated proliferation and phosphorylation)
Sequence of c-kit (P10721 with tags, fused parts or gaps): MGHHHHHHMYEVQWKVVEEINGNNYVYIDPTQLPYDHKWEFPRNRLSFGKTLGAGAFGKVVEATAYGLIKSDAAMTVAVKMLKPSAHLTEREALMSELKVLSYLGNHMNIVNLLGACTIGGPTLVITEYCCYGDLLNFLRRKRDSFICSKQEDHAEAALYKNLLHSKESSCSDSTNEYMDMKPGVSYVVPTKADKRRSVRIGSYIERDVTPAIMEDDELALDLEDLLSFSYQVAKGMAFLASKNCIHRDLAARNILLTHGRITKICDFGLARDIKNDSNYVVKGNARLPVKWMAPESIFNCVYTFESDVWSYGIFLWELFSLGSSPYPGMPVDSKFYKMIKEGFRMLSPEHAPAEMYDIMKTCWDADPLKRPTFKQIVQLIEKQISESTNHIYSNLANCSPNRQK

MAP4K4 (HGK) = MAP4K4 (HGK) (Homo sapiens, UniProt O95819); assay: HGK biochemical assay (AlphaScreen); settings: 10 μM ATP
Sequence of MAP4K4 (HGK) (O95819 whole entry): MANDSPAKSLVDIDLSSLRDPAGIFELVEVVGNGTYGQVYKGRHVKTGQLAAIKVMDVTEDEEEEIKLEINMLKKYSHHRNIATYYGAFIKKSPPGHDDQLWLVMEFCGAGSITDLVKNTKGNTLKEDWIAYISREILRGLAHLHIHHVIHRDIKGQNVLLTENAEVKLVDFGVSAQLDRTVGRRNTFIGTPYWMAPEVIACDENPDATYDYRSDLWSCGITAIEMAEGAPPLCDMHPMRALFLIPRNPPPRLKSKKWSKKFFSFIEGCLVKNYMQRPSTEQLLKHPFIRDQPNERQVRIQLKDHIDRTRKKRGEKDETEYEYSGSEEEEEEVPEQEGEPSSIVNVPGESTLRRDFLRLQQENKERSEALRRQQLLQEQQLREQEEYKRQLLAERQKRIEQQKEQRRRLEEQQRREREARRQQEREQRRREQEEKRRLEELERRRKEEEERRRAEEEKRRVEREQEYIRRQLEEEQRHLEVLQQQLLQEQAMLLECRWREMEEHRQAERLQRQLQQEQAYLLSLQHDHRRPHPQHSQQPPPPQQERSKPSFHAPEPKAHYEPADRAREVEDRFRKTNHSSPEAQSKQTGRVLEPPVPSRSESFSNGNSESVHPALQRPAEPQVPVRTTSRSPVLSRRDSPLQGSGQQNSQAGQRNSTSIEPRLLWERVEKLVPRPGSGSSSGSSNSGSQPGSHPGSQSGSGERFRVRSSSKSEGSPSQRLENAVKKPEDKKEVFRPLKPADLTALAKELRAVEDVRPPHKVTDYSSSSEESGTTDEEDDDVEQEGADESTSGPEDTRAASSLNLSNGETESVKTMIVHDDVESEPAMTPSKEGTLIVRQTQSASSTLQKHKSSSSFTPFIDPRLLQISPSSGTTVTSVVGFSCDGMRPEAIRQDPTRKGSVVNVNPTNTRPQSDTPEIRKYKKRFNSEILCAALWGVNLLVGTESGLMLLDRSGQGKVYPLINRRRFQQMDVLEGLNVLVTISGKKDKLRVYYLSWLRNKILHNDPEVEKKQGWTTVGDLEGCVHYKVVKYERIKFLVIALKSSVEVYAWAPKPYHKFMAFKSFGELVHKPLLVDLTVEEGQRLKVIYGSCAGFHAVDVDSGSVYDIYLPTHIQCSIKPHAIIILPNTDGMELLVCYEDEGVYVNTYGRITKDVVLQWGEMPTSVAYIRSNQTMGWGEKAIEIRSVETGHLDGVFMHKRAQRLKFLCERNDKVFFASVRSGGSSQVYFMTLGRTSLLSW
Protocol: Substrate was 10 nM biotin-ERM (T567/T564/T558, Cell Signaling, Inc., cat#1344). MAP4K4 kinase was at 0.5 ng per sample.

T1 sequence (P04629 33-796): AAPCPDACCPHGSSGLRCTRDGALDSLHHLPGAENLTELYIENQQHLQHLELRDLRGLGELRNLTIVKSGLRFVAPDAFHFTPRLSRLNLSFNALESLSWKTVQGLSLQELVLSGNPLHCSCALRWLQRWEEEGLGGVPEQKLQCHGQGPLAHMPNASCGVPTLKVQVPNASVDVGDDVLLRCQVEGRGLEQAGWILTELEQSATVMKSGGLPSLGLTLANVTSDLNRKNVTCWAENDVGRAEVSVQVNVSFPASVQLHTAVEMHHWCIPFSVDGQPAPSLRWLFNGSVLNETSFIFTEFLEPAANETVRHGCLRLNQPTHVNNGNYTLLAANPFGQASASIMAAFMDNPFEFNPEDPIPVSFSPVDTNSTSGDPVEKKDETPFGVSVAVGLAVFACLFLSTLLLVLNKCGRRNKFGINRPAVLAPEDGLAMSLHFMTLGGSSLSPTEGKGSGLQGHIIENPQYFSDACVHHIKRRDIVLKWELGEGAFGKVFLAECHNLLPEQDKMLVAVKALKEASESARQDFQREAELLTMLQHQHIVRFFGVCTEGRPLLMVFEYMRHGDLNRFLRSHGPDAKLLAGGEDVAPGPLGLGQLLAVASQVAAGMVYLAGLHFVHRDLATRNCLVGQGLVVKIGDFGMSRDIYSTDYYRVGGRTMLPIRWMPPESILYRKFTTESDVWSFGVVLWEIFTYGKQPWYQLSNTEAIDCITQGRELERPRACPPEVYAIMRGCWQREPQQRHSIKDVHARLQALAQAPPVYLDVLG

SMILES	IC50 (TrkA kinase) [nM]	IC50 (c-kit) [nM]	IC50 (MAP4K4 (HGK)) [nM]
FC(F)(F)Oc1ccccc1CNc1ncc(Cc2c[nH]c3ncccc23)cn1 [P-0303, [5-(1H-Pyrrolo[2,3-b]pyridin-3-ylmethyl)-pyrimidin-2-yl]-(2-trifluoromethoxy-benzyl)-amine]	< 1000	< 1000	
Fc1ccc(CNc2nc(Cl)c(Cc3c[nH]c4ncccc34)s2)nc1 [P-0206, [4-Chloro-5-(1H-pyrrolo[2,3-b]pyridin-3-ylmethyl)-thiazol-2-yl]-(5-fluoro-pyridin-2-ylmethyl)-amine]		< 1000	< 1000
Fc1ccc(CNc2nc(Cl)c(Cc3c[nH]c4ncc(Cl)cc34)s2)cc1 [P-0195, [4-Chloro-5-(5-chloro-1H-pyrrolo[2,3-b]pyridin-3-ylmethyl)-thiazol-2-yl]-(4-fluoro-benzyl)-amine]		< 1000	< 1000
Cc1cccc(CNc2nc(Cl)c(Cc3c[nH]c4ncccc34)s2)n1 [P-0171, [4-Chloro-5-(1H-pyrrolo[2,3-b]pyridin-3-ylmethyl)-thiazol-2-yl]-(6-methyl-pyridin-2-ylmethyl)-amine]	< 1000	< 1000	
Cn1cc(-c2cnc3[nH]cc(Cc4cc(NCc5ccc(F)cc5)nn4C)c3c2)cn1 [P-0180, (4-Fluoro-benzyl)-{1-methyl-5-[5-(1-methyl-1H-pyrazol-4-yl)-1H-pyrrolo[2,3-b]pyridin-3-ylmethyl]-1H-pyrazol-3-yl}-amine]	< 1000	< 1000	
Fc1cncc(CNc2ccc(Cc3c[nH]c4ncc(Cl)cc34)cn2)c1 [P-0324, [5-(5-chloro-1H-pyrrolo[2,3-b]pyridin-3-ylmethyl)-pyridin-2-yl]-(5-fluoro-pyridin-3-ylmethyl)-amine]		< 1000	< 1000
Cc1cnc2[nH]cc(Cc3ccc(NCc4c(F)cccc4F)nc3)c2c1 [P-0341, (2,6-Difluoro-benzyl)-[5-(5-methyl-1H-pyrrolo[2,3-b]pyridin-3-ylmethyl)-pyridin-2-yl]-amine]		< 1000	< 1000
O=C(Nc1cccc(F)c1)Nc1ccc(Cc2c[nH]c3ncccc23)cn1 [P-0412, 1-(3-fluoro-phenyl)-3-[5-(1H-pyrrolo[2,3-b]pyridin-3-ylmethyl)-pyridin-2-yl]-urea]	< 1000	< 1000	
Cc1cccc(CNc2nc(Cl)c(Cc3c[nH]c4ncc(Cl)cc34)s2)n1 [P-0255, [4-Chloro-5-(5-chloro-1H-pyrrolo[2,3-b]pyridin-3-ylmethyl)-thiazol-2-yl]-(6-methyl-pyridin-2-ylmethyl)-amine]		< 1000	< 1000
O=C(c1cnc(NCc2ccc(F)cc2)s1)c1c[nH]c2ncccc12 [P-0177, [2-(4-fluoro-benzylamino)-thiazol-5-yl]-(1H-pyrrolo[2,3-b]pyridin-3-yl)-methanone]		< 1000	< 1000
Fc1ccc(CNc2nc(Cl)c(Cc3c[nH]c4ncc(Cl)cc34)s2)nc1 [P-0240, [4-Chloro-5-(5-chloro-1H-pyrrolo[2,3-b]pyridin-3-ylmethyl)-thiazol-2-yl]-(5-fluoro-pyridin-2-ylmethyl)-amine]		< 1000	< 1000
O=C(c1ccc(NCc2ccccc2F)nc1)c1c[nH]c2ncccc12 [P-0403, [6-(2-fluoro-benzylamino)-pyridin-3-yl]-(1H-pyrrolo[2,3-b]pyridin-3-yl)-methanone]			< 1000
Fc1ccc(CNc2nc(Cl)c(Cc3c[nH]c4ncccc34)s2)cc1 [P-0156, [4-Chloro-5-(1H-pyrrolo[2,3-b]pyridin-3-ylmethyl)-thiazol-2-yl]-(4-fluoro-benzyl)-amine]		< 1000	< 1000
Cc1nc(CNc2nc(Cl)c(Cc3c[nH]c4ncc(Cl)cc34)s2)cs1 [P-0201, [4-Chloro-5-(5-chloro-1H-pyrrolo[2,3-b]pyridin-3-ylmethyl)-thiazol-2-yl]-(2-methyl-thiazol-4-ylmethyl)-amine]		< 1000	< 1000
COc1cncc(CNc2nc(Cl)c(Cc3c[nH]c4ncccc34)s2)c1 [P-0207, [4-Chloro-5-(1H-pyrrolo[2,3-b]pyridin-3-ylmethyl)-thiazol-2-yl]-(5-methoxy-pyridin-3-ylmethyl)-amine]			< 1000
Fc1cncc(CNc2nc(Cl)c(Cc3c[nH]c4ncc(Cl)cc34)s2)c1 [P-0231, [4-Chloro-5-(5-chloro-1H-pyrrolo[2,3-b]pyridin-3-ylmethyl)-thiazol-2-yl]-(5-fluoro-pyridin-3-ylmethyl)-amine]			< 1000
COc1cncc(CNc2nc(Cl)c(Cc3c[nH]c4ncc(Cl)cc34)s2)c1 [P-0241, [4-Chloro-5-(5-chloro-1H-pyrrolo[2,3-b]pyridin-3-ylmethyl)-thiazol-2-yl]-(5-methoxy-pyridin-3-ylmethyl)-amine]			< 1000
Clc1ccc(CNc2nc(Cl)c(Cc3c[nH]c4ncc(Cl)cc34)s2)nc1 [P-0203, [4-Chloro-5-(5-chloro-1H-pyrrolo[2,3-b]pyridin-3-ylmethyl)-thiazol-2-yl]-(5-chloro-pyridin-2-ylmethyl)-amine]		< 1000	< 1000

SMILES	IC50 (TrkA kinase) [nM]	IC50 (c-kit) [nM]	IC50 (MAP4K4 (HGK)) [nM]
N#Cc1cnc2[nH]cc(Cc3ccc(NCc4c(F)cccc4F)nc3)c2c1 [P-0277, 3-[6-(2,6-Difluoro-benzylamino)-pyridin-3-ylmethyl]-1H-pyrrolo[2,3-b]pyridine-5-carbonitrile]		< 1000	
CCc1ccccc1CNc1ccc(Cc2c[nH]c3ncccc23)cn1 [P-0383, (2-Ethyl-benzyl)-[5-(1H-pyrrolo[2,3-b]pyridin-3-ylmethyl)-pyridin-2-yl]-amine]		< 1000	
Clc1cccc(CNc2ncc(Cc3c[nH]c4ncccc34)cn2)c1Cl [P-0313, (2,3-Dichloro-benzyl)-[5-(1H-pyrrolo[2,3-b]pyridin-3-ylmethyl)-pyrimidin-2-yl]-amine]		< 1000	
FC(F)(F)c1cc(CNc2ccc(Cc3c[nH]c4ncccc34)cn2)ccc1Cl [P-0348, (4-Chloro-3-trifluoromethyl-benzyl)-[5-(1H-pyrrolo[2,3-b]pyridin-3-ylmethyl)-pyridin-2-yl]-amine]		< 1000	
FC(F)(F)c1ccc(CNc2ccc(Cc3c[nH]c4ncc(Cl)cc34)c(Cl)n2)cn1 [P-0176, [6-Chloro-5-(5-chloro-1H-pyrrolo[2,3-b]pyridin-3-ylmethyl)-pyridin-2-yl]-(6-trifluoromethyl-pyridin-3-ylmethyl)-amine]		< 1000	
COc1cnc2[nH]cc(Cc3ccc(NCc4c(F)cccc4F)nc3)c2c1 [P-0334, (2,6-Difluoro-benzyl)-[5-(5-methoxy-1H-pyrrolo[2,3-b]pyridin-3-ylmethyl)-pyridin-2-yl]-amine]		< 1000	
Fc1ccc(C(F)(F)F)cc1CNc1ncc(Cc2c[nH]c3ncc(Cl)cc23)cn1 [P-0289, [5-(5-Chloro-1H-pyrrolo[2,3-b]pyridin-3-ylmethyl)-pyrimidin-2-yl]-(2-fluoro-5-trifluoromethyl-benzyl)-amine]		< 1000	
Cc1ccccc1CNc1ccc(Cc2c[nH]c3ncccc23)cn1 [P-0217, (2-Methyl-benzyl)-[5-(1H-pyrrolo[2,3-b]pyridin-3-ylmethyl)-pyridin-2-yl]-amine]		< 1000	
Clc1ccccc1CNc1ncc(Cc2c[nH]c3ncccc23)cn1 [P-0301, (2-Chloro-benzyl)-[5-(1H-pyrrolo[2,3-b]pyridin-3-ylmethyl)-pyrimidin-2-yl]-amine]		< 1000	
Clc1ccc(CNc2ccc(Cc3c[nH]c4ncccc34)c(Cl)n2)cc1 [P-0161, (4-Chloro-benzyl)-[6-chloro-5-(1H-pyrrolo[2,3-b]pyridin-3-ylmethyl)-pyridin-2-yl]-amine]		< 1000	
CCCS(=O)(=O)Nc1ccc(F)c(CNc2ccc(Cc3c[nH]c4ncc(Cl)cc34)cn2)c1F [P-0259, Propane-1-sulfonic acid (3-{[5-(5-chloro-1H-pyrrolo[2,3-b]pyridin-3-ylmethyl)-pyridin-2-ylamino]-methyl}-2,4-difluoro-phenyl)-amide]		< 1000	
Fc1c(CNc2ccc(Cc3c[nH]c4ncccc34)cn2)cccc1C(F)(F)F [P-0365, (2-Fluoro-3-trifluoromethyl-benzyl)-[5-(1H-pyrrolo[2,3-b]pyridin-3-ylmethyl)-pyridin-2-yl]-amine]		< 1000	
Fc1cc(C(F)(F)F)ccc1CNc1ncc(Cc2c[nH]c3ncccc23)cn1 [P-0319, (2-Fluoro-4-trifluoromethyl-benzyl)-[5-(1H-pyrrolo[2,3-b]pyridin-3-ylmethyl)-pyrimidin-2-yl]-amine]		< 1000	
O=C(c1ccc(NCc2ccc(F)cc2)nc1)c1c[nH]c2ncccc12 [P-0015, [6-(4-Fluoro-benzylamino)-pyridin-3-yl]-(1H-pyrrolo[2,3-b]pyridin-3-yl)-methanone]		< 1000	
Fc1ccc(CNc2ncc(Cc3c[nH]c4ncccc34)cn2)c(C(F)(F)F)c1 [P-0320, (4-Fluoro-2-trifluoromethyl-benzyl)-[5-(1H-pyrrolo[2,3-b]pyridin-3-ylmethyl)-pyrimidin-2-yl]-amine]		< 1000	
c1cnc2[nH]cc(Cc3ccc(NCCN4CCCC4)nc3)c2c1 [P-0096, (2-Pyrrolidin-1-yl-ethyl)-[5-(1H-pyrrolo[2,3-b]pyridin-3-ylmethyl)-pyridin-2-yl]-amine]		< 1000	
Cc1nn(C(=O)NCCc2ccc(F)cc2)c(C)c1Cc1c[nH]c2ncc(Cl)cc12 [P-0157, 4-(5-Chloro-1H-pyrrolo[2,3-b]pyridin-3-ylmethyl)-3,5-dimethyl-pyrazole-1-carboxylic acid [2-(4-fluoro-phenyl)-ethyl]-amide]	< 1000	< 1000	
COc1cnc2[nH]cc(Cc3ccc(NCc4cc(F)ccc4F)nc3)c2c1 [P-0330, (2,5-Difluoro-benzyl)-[5-(5-methoxy-1H-pyrrolo[2,3-b]pyridin-3-ylmethyl)-pyridin-2-yl]-amine]		< 1000	
